Results: patent US9828351B2, “Enzyme interacting agents” (MONASH UNIVERSITY, priority 2014, dated 2017)

Tested on: PC3 prostate cancer cell lines
Assay: Anticancer activity in PC3 cell line, CellTitre AQueous One cell viability assay
Type: cell-based
Settings: Homo sapiens, PC-3; concentration required to inhibit cell proliferation by 50%; 72 hours
Method: Measurement of Anticancer Activity in PC3 Cell Line Assays
PC3 prostate cancer cell lines were cultured in DMEM (containing 10% fetal calf serum and penicillin-streptomycin).
Before treatment with drug compounds, cells were plated at 2,500 cells/well in 96 well plates and incubated at 37° C. with 5% CO2 in a humidified incubator for 24 hours prior. Cells were only plated in columns 3-10 and rows C—F to ensure uniform humidity and warmth across all wells. The remaining wells were filled with 100 μL of phosphate buffered saline.
Drug stock solutions (50 or 10 mM) were diluted×1000 in media to a final concentration of either 50 μM or 10 μM with a DMSO vehicle concentration of 0.1%.
Cell culture supernatants were aspirated and replaced with drug containing media. Drug treatments were performed in duplicate wells, while potential plate layout-specific variation in cell growth was accounted for by addition of a vehicle control (0.1% DMSO).
Cells were then incubated with drug compounds at 37° C. with 5% CO2 in a humidified incubator for 72 hours prior to assay.
Media was diluted with CellTitre AQueous One Solution (Promega, Australia; Cat # G3580) according to manufacturer's instructions to produce a final concentration of 317 μg/mL.
Cell culture supernatants were then aspirated from wells and replaced with 100 μL of CellTitre solution. Triplicate cell-free control wells containing only CellTitre solution were also included in each assay.
Cells were then incubated at 37° C. with 5% CO2 in a humidified incubator for 1 hour at which time absorbance was read at 490 nm with an EnVision microplate reader (Perkin Elmer, Australia).
When analysing data, background absorbance (taken from cell-free control wells) was subtracted from each reading. […] For each drug concentration the mean (±SEM) is calculated and graphed using GraphPad Prism (version 5). A sigmoidal curved is fitted to the data and used to calculate the IC50 of each compound.

## Oc1ccc(Nc2nc(-c3ccc(Cl)cc3)cs2)cc1 [SKI-II, reference compound]
  IC50: 1 to 10 µM
